Experimental data taken from PubChem BioAssay (NCI).
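At the GI50, growth is halved. TGI denotes the concentration required for complete inhibition of growth.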

Experiments:
Test in all cases: DTP human tumour cell line panel, 384-well format
TK-10 renal = tested on: TK-10 renal
HCC-2998 colon = tested on: HCC-2998 colon
SF-539 CNS = tested on: SF-539 CNS
COLO 205 colon = tested on: COLO 205 colon
MALME-3M melanoma = tested on: MALME-3M melanoma
MDA-MB-231 breast = tested on: MDA-MB-231 breast
RXF 393 renal = tested on: RXF 393 renal
DU-145 prostate = tested on: DU-145 prostate
M14 melanoma = tested on: M14 melanoma
CCRF-CEM leukemia = tested on: CCRF-CEM leukemia
A549 NSCLC = tested on: A549 NSCLC
K-562 leukemia = tested on: K-562 leukemia
PC-3 prostate = tested on: PC-3 prostate
MDA-MB-435 melanoma = tested on: MDA-MB-435 melanoma
KM12 colon = tested on: KM12 colon
UACC-62 melanoma = tested on: UACC-62 melanoma
OVCAR-3 ovarian = tested on: OVCAR-3 ovarian
MOLT-4 leukemia = tested on: MOLT-4 leukemia
CAKI-1 renal = tested on: CAKI-1 renal
SNB-19 CNS = tested on: SNB-19 CNS
BT-549 breast = tested on: BT-549 breast
LOX IMVI melanoma = tested on: LOX IMVI melanoma
HT29 colon = tested on: HT29 colon
SN12C renal = tested on: SN12C renal
UACC-257 melanoma = tested on: UACC-257 melanoma
IGROV1 ovarian = tested on: IGROV1 ovarian
ACHN renal = tested on: ACHN renal
MCF7 breast = tested on: MCF7 breast
NCI-H226 lung = tested on: NCI-H226 lung
NCI/ADR-RES ovarian = tested on: NCI/ADR-RES ovarian
OVCAR-5 ovarian = tested on: OVCAR-5 ovarian
HOP-92 NSCLC = tested on: HOP-92 NSCLC
SR leukemia = tested on: SR leukemia
HCT-15 colon = tested on: HCT-15 colon
OVCAR-4 ovarian = tested on: OVCAR-4 ovarian
NCI-H460 NSCLC = tested on: NCI-H460 NSCLC
SK-MEL-28 melanoma = tested on: SK-MEL-28 melanoma
HS 578T breast = tested on: HS 578T breast
OVCAR-8 ovarian = tested on: OVCAR-8 ovarian
786-0 renal = tested on: 786-0 renal
SNB-75 CNS = tested on: SNB-75 CNS
NCI-H23 lung = tested on: NCI-H23 lung
RPMI-8226 leukemia = tested on: RPMI-8226 leukemia
NCI-H522 lung = tested on: NCI-H522 lung
NCI-H322M lung = tested on: NCI-H322M lung
SK-OV-3 ovarian = tested on: SK-OV-3 ovarian
T-47D breast = tested on: T-47D breast
HL-60(TB) leukemia = tested on: HL-60(TB) leukemia
EKVX NSCLC = tested on: EKVX NSCLC
SW-620 colon = tested on: SW-620 colon
SF-295 CNS = tested on: SF-295 CNS
U251 glioblastoma = tested on: U251 glioblastoma
HOP-62 NSCLC = tested on: HOP-62 NSCLC
MDA-MB-468 breast = tested on: MDA-MB-468 breast
UO-31 renal = tested on: UO-31 renal
SK-MEL-5 melanoma = tested on: SK-MEL-5 melanoma
SF-268 CNS = tested on: SF-268 CNS
A498 renal = tested on: A498 renal

## O=C(Nc1cccc(Nc2ncc(Br)c(NCCc3cnc[nH]3)n2)c1)N1CCCC1
TK-10 renal
  GI50: 7.86 µM
  TGI: 23.8 µM
HCC-2998 colon
  GI50: 6.06 µM
  TGI: 19 µM
SF-539 CNS
  GI50: 955 nM
  TGI: 4.06 µM
COLO 205 colon
  GI50: 273 nM
  TGI: 886 nM
MALME-3M melanoma
  GI50: 4.16 µM
  TGI: 17.9 µM
MDA-MB-231 breast
  GI50: 2400 nM
  TGI: 12.7 µM
RXF 393 renal
  GI50: 6.04 µM
  TGI: 20.9 µM
DU-145 prostate
  GI50: 5.13 µM
  TGI: 19.3 µM
M14 melanoma
  GI50: 3.02 µM
  TGI: 12.9 µM
CCRF-CEM leukemia
  GI50: 190 nM
  TGI: 377 nM
A549 NSCLC
  GI50: 6.32 µM
  TGI: > 100 µM
K-562 leukemia
  GI50: 2050 nM
  TGI: 10.5 µM
PC-3 prostate
  GI50: 4.38 µM
  TGI: 18.4 µM
MDA-MB-435 melanoma
  GI50: 2960 nM
  TGI: 16.5 µM
KM12 colon
  GI50: 684 nM
  TGI: 10.6 µM
UACC-62 melanoma
  GI50: 1690 nM
  TGI: 14.2 µM
OVCAR-3 ovarian
  GI50: 2720 nM
  TGI: 17.3 µM
MOLT-4 leukemia
  GI50: 202 nM
  TGI: 403 nM
CAKI-1 renal
  GI50: 3.62 µM
  TGI: 19.7 µM
SNB-19 CNS
  GI50: 8.32 µM
  TGI: 46.8 µM
BT-549 breast
  GI50: 1570 nM
  TGI: 5.23 µM
LOX IMVI melanoma
  GI50: 1180 nM
  TGI: 2800 nM
HT29 colon
  GI50: 4.1 µM
  TGI: 18.5 µM
SN12C renal
  GI50: 1480 nM
  TGI: 10.6 µM
UACC-257 melanoma
  GI50: 10.5 µM
  TGI: 22.4 µM
IGROV1 ovarian
  GI50: 6.48 µM
  TGI: 21.1 µM
ACHN renal
  GI50: 12.8 µM
  TGI: 59.5 µM
MCF7 breast
  GI50: 3.67 µM
  TGI: 19.9 µM
NCI-H226 lung
  GI50: 873 nM
  TGI: 4.74 µM
NCI/ADR-RES ovarian
  GI50: > 100 µM
  TGI: > 100 µM
OVCAR-5 ovarian
  GI50: 4.3 µM
  TGI: 24.9 µM
HOP-92 NSCLC
  GI50: 1600 nM
  TGI: 6.13 µM
SR leukemia
  GI50: 180 nM
  TGI: 349 nM
HCT-15 colon
  GI50: 11.4 µM
  TGI: 25.6 µM
OVCAR-4 ovarian
  GI50: 1130 nM
  TGI: 10.4 µM
NCI-H460 NSCLC
  GI50: 2960 nM
  TGI: 8.71 µM
SK-MEL-28 melanoma
  GI50: 5.06 µM
  TGI: 18.7 µM
HS 578T breast
  GI50: 1440 nM
  TGI: 3.59 µM
OVCAR-8 ovarian
  GI50: 5.61 µM
  TGI: 18.9 µM
786-0 renal
  GI50: 5.36 µM
  TGI: 19.5 µM
SNB-75 CNS
  GI50: 2000 nM
  TGI: 8.78 µM
NCI-H23 lung
  GI50: 2310 nM
  TGI: 10.7 µM
RPMI-8226 leukemia
  GI50: 1450 nM
  TGI: 2900 nM
NCI-H522 lung
  GI50: 1080 nM
  TGI: 4.86 µM
NCI-H322M lung
  GI50: 10.3 µM
  TGI: 22.3 µM
SK-OV-3 ovarian
  GI50: 4.21 µM
  TGI: 18.8 µM
T-47D breast
  GI50: 4.37 µM
  TGI: 17.2 µM
HL-60(TB) leukemia
  GI50: 399 nM
  TGI: 1940 nM
EKVX NSCLC
  GI50: 6.65 µM
  TGI: 27.3 µM
SW-620 colon
  GI50: 1600 nM
  TGI: 5.1 µM
SF-295 CNS
  GI50: 3.77 µM
  TGI: 14.5 µM
U251 glioblastoma
  GI50: 9.49 µM
  TGI: 79.1 µM
HOP-62 NSCLC
  GI50: 2780 nM
  TGI: 12.4 µM
MDA-MB-468 breast
  GI50: 283 nM
  TGI: 631 nM
UO-31 renal
  GI50: 26.6 µM
  TGI: > 100 µM
SK-MEL-5 melanoma
  GI50: 3.58 µM
  TGI: 14.6 µM
SF-268 CNS
  GI50: 1920 nM
  TGI: 10.2 µM
A498 renal
  GI50: 4.58 µM
  TGI: 60.7 µM
